The values below come from patent US20240156846A1, “COMPOSITIONS AND METHODS FOR TREATING NEURODEGENERATIVE DISORDERS” (Arizona Board of Regents on Behalf of the University of …, priority 2020, published 2024).

Entries after “also recorded” stand apart in the source; their conditions may differ.

One series concerns myrosinase. The note with it: cited from earlier work.
Series [1] relates to primary cultures of human neurons exposed to Aβ1-42 aggregates. The series is described as follows: Prevention of neuronal loss caused by Aβ1-42 aggregates (MTT assay). Format: cell-based. The note with it: compounds at 0 h, 24 h, 48 h; 1 μM Aβ1-42 aggregates at 24 h; MTT at 72 h. On the procedure: Next, we determined whether these compounds, administered independently or formulated in combination, could protect primary cultures of human neurons against neurotoxic effects of Aβ1-42 aggregates, an in vitro condition relevant to AD pathology. We evaluated both prevention and rescue of neuronal death by NADH, NAD+ and PEITC (FIG. 7). In both experiments, the cultured human neurons were exposed to 1 nM, 10 nM, 100 nM, 1 μM, 10 μM, 20 μM, 40 μM, 50 μM, 75 μM, and 100 μM of each compound, either individually or in equimolar combinations. […] In the prevention experiment, cultures were exposed to fresh compounds every 24 h over the 48 h timeline of this experiment (i.e., 0 h, 24 h, and 48 h) to resemble a pharmacological regimen of once daily dosing. At 24 h, we added 1 μM of Aβ1-42 aggregates to the cell culture media and measured cell viability at 72 h using the MTT assay (Online Method, FIG. 7A). […] In the rescue experiments, primary cultures of human neurons were exposed to 1 μM of Aβ1-42 aggregates at 0 h for a period of 48 h to model existing cellular damage under conditions relevant to AD. After 24 h incubation with Aβ1-42, we added NADH, NAD+, PEITC, NADH/PEITC, and NAD+/PEITC directly to the culture media containing Aβ1-42 and incubated the cultured human neurons for an additional 24 h when cell viability was measured using our MTT assay.
To determine the optimal dosage of the two formulations for neuronal rescue and microglial phagocytosis stimulation, we treated the primary cultures of human neurons and primary cultures of human microglia in the prevention settings respectively with exhaustive combination of individual dosage of 10 μM, 20 μM, 40 μM, 50 μM, 75 μM, and 100 μM.
In general terms: Tetrazolium assays rely on reduction of a dye to a coloured formazan, in cell work by metabolically active cells.

Series [2] concerns primary cultures of human microglia exposed to Aβ1-42 aggregates. The series is described as follows: Aβ1-42 uptake (phagocytosis) by microglia, rescue setting. The series is classed as cell-based. The note with it: 10 dosages tested. The source says: There is considerable interest in microglia-targeted therapies for AD, in part due to the phagocytotic functionality of these cells that can promote neuronal recovery and/or repair. Indeed, phagocytosis of insoluble Aβ by microglia can facilitate CNS clearance of Aβ aggregates and limit formation of amyloid plaques (Ronaldson & Davis, 2020). Indeed, Aβ can bind to receptors at the microglial cell surface, an event that can trigger release of proinflammatory cytokines such as TNF-α and IL-1β, factors that are known to cause neuronal damage (Wang et al. 2015). Additionally, Jiang and colleagues discovered that triggering receptor expressed in myeloid cells 1 (TREM1) can promote Aβ phagocytosis by microglia (Jiang et al. 2016). […] To determine if the natural compounds individually or in combination could promote phagocytosis in microglia, we designed prevention and rescue experiments to measure Aβ1-42 uptake in primary cultures of human microglia via intracellular fluorescence (Online method). […] After 24 h, we added 1 μM of Aβ1-42 aggregates to the treated media and measured cell viability at 72 h using the Aβ uptake assay (Online Method, FIG. 8A). […] Uptake of Aβ1-42 was then measured 24 h later (i.e., at the 48 h experimental time point, FIG. 8B).

In another series the test system is 3xTg AD mice. The series is described as follows: Treatment of 3xTg AD mice: brain Aβ, tau and proteomics. The series is classed as in vivo, mouse. The note with it: for levels of neurotoxic Aβ42 / ratio of Aβ42 to Aβ40: 3xTg AD mice treated with individual compound; for ratio of p231-tau to total tau: 3xTg mice treated with individual compound.
Series [3] relates to humanized-Tau (hTau) mice. The series is described as follows: Treatment of humanized-Tau (hTau) mice: brain p231Tau. The series is classed as in vivo, mouse.
The conditions of series [4]: human subjects, after the consumption of 100 g watercress; cited from earlier work.
The conditions of series [5]: rat, in vivo, cited from earlier work.
For series [6] the following is noted: cited from earlier work.

For `O=S(=O)(O)ON=C(Cc1ccccc1)SC1OC(CO)C(O)C(O)C1F` (stereo not drawn) [2-F-2-deoxybenzylglucosinolate], the inhibition of myrosinase entry with myrosinase is recorded as “inhibits the enzyme by trapping one of the glutamic acid residues in the active site, Glu 409”.
For the compound `NC(=O)c1ccc[n+]([C@@H]2O[C@H](COP(=O)([O-])OP(=O)(O)OC[C@H]3O[C@@H](n4cnc5c(N)ncnc54)[C@H](O)[C@@H]3O)[C@@H](O)[C@H]2O)c1` [NAD+, oxidized nicotinamide adenine dinucleotide], in series [1], the “prevention of neuronal loss as compared to the negative control condition” value is listed as “significantly prevented neuronal loss”. Moreover, the “number of dosages that significantly rescued microglial phagocytosis of Aβ1-42” value in series [2] is recorded as “eight”. In addition, in the series on 3xTg AD mice, the “levels of neurotoxic Aβ42” value is on record as “significant reduction”, the “ratio of Aβ42 to Aβ40” value is recorded as “significantly reduced; also recorded: significant reduction” and the “ratio of p231-tau to total tau” value is on record as “significantly reduced”.
With `NC(=O)C1=CN([C@@H]2O[C@H](COP(=O)(O)OP(=O)(O)OC[C@H]3O[C@@H](n4cnc5c(N)ncnc54)[C@H](O)[C@@H]3O)[C@@H](O)[C@H]2O)C=CC1` [NADH, reduced nicotinamide adenine dinucleotide], the “prevention of neuronal loss as compared to the negative control condition” value in series [1] is listed as “significantly prevented neuronal loss”. For the same compound, the “number of dosages that significantly rescued microglial phagocytosis of Aβ1-42” value in series [2] is on record as “three”. Besides, in the series with 3xTg AD mice, the “levels of neurotoxic Aβ42” value is listed as “significant reduction”, the “ratio of Aβ42 to Aβ40” value was “significantly reduced; also recorded: significant reduction” and the “ratio of p231-tau to total tau” value was “significantly reduced”.
With `S=C=NCCc1ccccc1` [PEITC, phenethyl isothiocyanate], in series [1], the “prevention of neuronal loss as compared to the negative control condition” value is on record as “significantly prevented neuronal loss”. Further, in the series on 3xTg AD mice, the “levels of neurotoxic Aβ42” value is given as “significant reduction”, the “ratio of Aβ42 to Aβ40” value is given as “significantly reduced; also recorded: significant reduction” and the “ratio of p231-tau to total tau” value is “significantly reduced”. Moreover, in series [3], the “level of hyperphosphorylated Tau (p231Tau)” value was “significant reduction” and the “ratio of p231Tau to Tau” value is given as “significant reduction”. The peak plasma concentration result in series [4] was “about 928.5±250 nM”. In series [5] (po), the bioavailability is 90-114%, the clearance result was “low” and the protein binding result was “high”. Besides, in series [5], the “bioavailability with repeated dosing” value is recorded as “Increased”.
Consider `O=S(=O)(O)O` [Sulfate], for which, in the series with myrosinase, the inhibition of myrosinase result was “competitive inhibitor”.
For the compound `CN1C(=N)N[C@](C)(c2cc(NC(=O)c3ccc(F)cn3)ccc2F)CS1(=O)=O` [Verubecestat], the “CSF Aβ levels” value in series [6] (patients with AD / early-stage AD) is on record as “decrease CSF Aβ levels”.
Take `C[C@@]1(c2cc(NC(=O)c3ccc(C#N)cn3)ccc2F)C=CSC(N)=N1` [atabecestat]: in series [6] (phase two clinical trials and long-term safety and tolerability study), the “cognitive assessment scores in treated patients” value is on record as “trend of worsening cognitive assessment scores”.
`CC(C)[C@H](O)C(=O)N[C@@H](C)C(=O)N[C@@H]1C(=O)N(C)CCc2ccccc21` [semagacestat]: in series [6] (phase three trial), the “functional or cognitive ability in treated patients” value was “lack of efficacy and a worsening of function and cognition”.
Take `OC[C@H]1O[C@@](CO)(O[C@H]2O[C@H](CO)[C@@H](O)[C@H](O)[C@H]2O)[C@@H](O)[C@@H]1O` [sucrose, reference compound]: the “prevention of neuronal loss as compared to the negative control condition” value in series [1] is reported as “did not prevent any neuronal death”.
